Here are results for 37 compounds from patent publication US20260216294A1, “BETA 2-ADRENERGIC RECEPTOR AGONISTS FOR TREATMENT OR PREVENTION OF MUSCLE WASTING” (ATROGI AB, priority 2023, published 2026).

In assay [1] the test system is L6-myotubes. Put plainly: Measurement of intracellular cAMP levels in differentiated L6-myotubes (Biological Example 3). The class given is cell-based. The settings on record: for Emax at 10 µM: 0.25 h. The gist of the method: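 Intracellular cAMP quantified by AlphaScreen after ethanol extraction and lysis of L6 myotubes. Cells were serum-starved overnight, then exposed for 15 min to compound (final 1×10^−5 M) or isoprenaline in IBMX-containing (1 mM) HBSS buffer, pH 7.4.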
For orientation: cAMP levels reflect the balance of adenylyl cyclase and phosphodiesterase activity.

For assay [2], the system named is L6-myotubes. Put plainly: Glucose uptake in differentiated L6-myotubes (Biological Example 2). The settings on record: for Emax at 10 µM: read-out: Biological example 2 (GU). The class given is cell-based. The gist of the method: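 Uptake was quantified as radioactivity in 0.2 M NaOH lysates after a 10 min pulse of 50 nM ^3H-2-deoxyglucose. The pulse followed two agonist exposures at 1×10^−5 M final (isoprenaline or test compound): 1 h 40 min, then 20 min in glucose-free medium after washing. L6 myotubes had been starved overnight in medium with 0.5% fatty-acid-free BSA.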

[3] abbreviates: intracellular cAMP in differentiated L6-myotubes, compound at 10 μM, activity relative to isoproterenol at 10 μM.
[4] abbreviates: glucose uptake in differentiated L6-myotubes, compound at 10 μM, activity relative to isoproterenol at 10 μM.
The mark [5] stands for this setting: intracellular cAMP, compound at 10 μM relative to isoproterenol at 10 μM.
The mark [6] stands for this setting: glucose uptake, compound at 10 μM relative to isoproterenol at 10 μM.

Molecules are shown by their SMILES.

As to `CC1(C)C[C@@H]([C@@H](O)c2ccccc2F)N1` [Compound 205, (S)-[(S)-4,4-dimethyl-2-azetidinyl](o-fluorophenyl)methanol], the figures for the Emax at 10 µM with L6-myotubes [1] (setting [3]) and with L6-myotubes [2] (setting [4]) were under 25% and 25 to 50%, respectively.
In the same order, the values of `CCC[C@@H]1CCCC[C@H]([C@@H](O)c2cncc(F)c2)N1` [Compound 218, (S)-[(2R,7R)-7-propyl-2-azepanyl](5-fluoro-3-pyridyl)methanol] are under 25% and under 25%.
Take `CS(=O)(=O)N(Cc1ccccc1)CC12CCC([C@@H](O)c3cccc(F)c3)(CC1)N2` [Compound 538, (S)-(4-{[(benzyl)-N-mesylamino]methyl}-7-azabicyclo[[2.2.1]]hept-1-yl)(m-fluorophenyl)methanol]: the Emax at 10 µM in the assay on L6-myotubes [1] (setting [3]) is under 25%; in the assay on L6-myotubes [2] (setting [4]), 50 to 75%.
For `CC(C)(C)NC[C@H](O)c1ccncc1F` [Compound 108, (R)-2-(tert-butylamino)-1-(3-fluoro-4-pyridyl)-1-ethanol], the Emax at 10 µM in the assay with L6-myotubes [1] (setting [5]) is under 25%; in the assay with L6-myotubes [2] (setting [6]), 25 to 50%.
As to `CC(C)(C[C@H]1CC[C@H](N)CC1)NC[C@@H](O)c1cccc(C#N)n1` [Compound 415], the Emax at 10 µM is under 25% in the assay on L6-myotubes [1] (setting [3]) and 50 to 75% in the assay on L6-myotubes [2] (setting [4]).
In the same order, the values of `CC(C)(NC[C@H](O)c1cccc(F)c1)[C@H]1CC[C@H](OCC(=O)O)CC1` [Compound 402] are under 25% and 50 to 75%.
Regarding `O[C@@H](c1cccc(F)c1)[C@H]1CCC2(CCCC2)N1` [Compound 169], the Emax at 10 µM in the assay with L6-myotubes [1] (setting [5]) and with L6-myotubes [2] (setting [6]) was under 25% each time.
`CS(=O)(=O)N[C@H]1CC[C@@H](CNC[C@H](O)c2cncc(F)c2)CC1` [Compound 314, (R)-1-(5-fluoro-3-pyridyl)-2-({[(1s,4S)-4-(mesylamino)cyclohexyl]methyl}amino)-1-ethanol]: the Emax at 10 µM was under 25% in the assay on L6-myotubes [1] (setting [3]) and 50 to 75% in the assay on L6-myotubes [2] (setting [4]).
As for `CC(C)(CC[C@H]1CC[C@@H](O)CC1)NC[C@H](O)c1cncc(F)c1` [Compound 296, (R)-2-{1,1-dimethyl-3-[(1s,4R)-4-hydroxycyclohexyl]propylamino}-1-(5-fluoro-3-pyridyl)-1-ethanol], the Emax at 10 µM was under 25% in the assay on L6-myotubes [1] (setting [3]) and over 75% in the assay on L6-myotubes [2] (setting [4]).
In the same order, the values of `COCC12CCC([C@@H](O)c3cccc(F)c3)(CC1)N2` [Compound 329, (S)-(m-fluorophenyl){4-(methoxymethyl)-7-azabicyclo[[2.2.1]]hept-1-yl}methanol] are under 25% and 25 to 50%.
`CCCC12CCC([C@H](O)c3cccc(F)c3)(CC1)N2` [Compound 183, (R)-(m-fluorophenyl)(4-propyl-7-azabicyclo[[2.2.1]]hept-1-yl)methanol]: the Emax at 10 µM in the assay on L6-myotubes [1] (setting [5]) was in the range of 25 to 50%; in the assay with L6-myotubes [2] (setting [6]) it was 50 to 75%.
With `O[C@@H](CNC[C@H]1CC[C@@H](OCc2ccccc2)CC1)c1cncc(F)c1` [Compound 263, (R)-1-(5-fluoro-3-pyridyl)-2-({[(1s,4S)-4-(benzyloxy)cyclohexyl]methyl}amino)-1-ethanol], the values for the Emax at 10 µM with L6-myotubes [1] (setting [3]) and with L6-myotubes [2] (setting [4]) were under 25% and over 75%, respectively.
In the same order, the values of `O[C@@H](CNCCC[C@H]1CC[C@@H](O)CC1)c1cncc(F)c1` [Compound 304, (R)-1-(5-fluoro-3-pyridyl)-2-{3-[(1s,4R)-4-hydroxycyclohexyl]propylamino}-1-ethanol] are under 25% and 50 to 75%.
Take `CC(C)(C[C@H]1CC[C@@H](NC(=O)C(C)(C)C)CC1)NC[C@H](O)c1cncc(F)c1` [Compound 455]: the Emax at 10 µM with L6-myotubes [1] (setting [3]) was under 25%; in the assay with L6-myotubes [2] (setting [4]), 50 to 75%.
Consider `CS(=O)(=O)N(Cc1ccccc1)c1ccc(CC23CCC([C@H](O)c4cccc(F)c4)(CC2)N3)cc1` [Compound 473], for which the Emax at 10 µM in the assay with L6-myotubes [1] (setting [3]) is under 25%; with L6-myotubes [2] (setting [4]), 25 to 50%.
Regarding `CC1(C)CC[C@H]([C@@H](O)c2cncc(F)c2)N1` [Compound 156], the Emax at 10 µM in the assay on L6-myotubes [1] (setting [5]) and in the assay with L6-myotubes [2] (setting [6]) was under 25% throughout.
As to `COc1ccc(CCC23CCC([C@@H](O)c4cncc(F)c4)(CC2)N3)cc1` [Compound 541, (S)-(5-fluoro-3-pyridyl){4-[2-(p-methoxyphenyl)ethyl]-7-azabicyclo[[2.2.1]]hept-1-yl}methanol], the Emax at 10 µM with L6-myotubes [1] (setting [3]) and in the assay with L6-myotubes [2] (setting [4]) was under 25% each time.
On to `O=C(N[C@H]1CC[C@H](CNC[C@H](O)c2cccc(F)c2)CC1)c1ccccc1` [Compound 315, N-[(1R,4r)-4-{[(R)-2-(m-fluorophenyl)-2-hydroxyethylamino]methyl}cyclohexyl] benzamide], for which the Emax at 10 µM is under 25% with L6-myotubes [1] (setting [3]) and over 75% with L6-myotubes [2] (setting [4]).
Consider `CCCCNC[C@H](O)c1ccnc(N)n1` [Compound 73, (S)-1-(2-amino-4-pyrimidinyl)-2-(butylamino)-1-ethanol], for which the Emax at 10 µM in the assay with L6-myotubes [1] (setting [5]) was under 25%; in the assay on L6-myotubes [2] (setting [6]) it was 25 to 50%.
On to `CS(=O)(=O)Nc1cccc(CC23CCC([C@@H](O)c4cccc(F)c4)(CC2)N3)c1` [Compound 514, (S)-(m-fluorophenyl)(4-{[m-(mesylamino)phenyl]methyl}-7-azabicyclo[[2.2.1]]hept-1-yl)methanol], for which the Emax at 10 µM with L6-myotubes [1] (setting [3]) was under 25%; in the assay on L6-myotubes [2] (setting [4]), 50 to 75%.
On to `CCC[C@H]1CCC[C@H]([C@H](O)c2cccc(O)c2)N1` [Compound 64, (R)-[(2R,6S)-6-propyl-2-piperidyl](m-hydroxyphenyl)methanol], for which the Emax at 10 µM in the assay on L6-myotubes [1] (setting [5]) was under 25%; with L6-myotubes [2] (setting [6]), over 75%.
In the same order, the values of `CCCC1(CCC)CC[C@H]([C@H](O)c2cccc(F)c2)N1` [Compound 159] are under 25% and 50 to 75%.
In the same order, the values of `CC1(C)CC[C@H]([C@@H](O)c2cccc(Cl)c2)N1` [Compound 153, (S)-[(R)-5,5-dimethyl-2-pyrrolidinyl](m-chlorophenyl)methanol] are under 25% and 25 to 50%.
For `CCCC(C)NCC(O)c1cccc(O)c1` (centres unmarked) [Compound 14, 1-(m-hydroxyphenyl)-2-(1-methylbutylamino)-1-ethanol], in that order: under 25% and over 75%.
On to `CS(=O)(=O)N[C@H]1CC[C@H](C[C@@H]2CC[C@H]([C@@H](O)c3cccc(F)c3)N2)CC1` [Compound 505, (S)-[(2R,5S)-5-{[(1r,4S)-4-(mesylamino)cyclohexyl]methyl}-2-pyrrolidinyl](m-fluorophenyl)methanol], for which the Emax at 10 µM in the assay with L6-myotubes [1] (setting [3]) and in the assay with L6-myotubes [2] (setting [4]) was under 25% each time.
Turning to `CC(C)(C[C@H]1CC[C@H](N)CC1)NC[C@H](O)c1cccc(C#N)n1` [Compound 417], the results for the Emax at 10 µM in the assay on L6-myotubes [1] (setting [3]) and in the assay with L6-myotubes [2] (setting [4]) were 25 to 50% and over 75%, respectively.
With `CCCCNCC(O)c1ccncc1` (centres unmarked) [Compound 48, 2-(butylamino)-1-(4-pyridyl)-1-ethanol], the results for the Emax at 10 µM in the assay with L6-myotubes [1] (setting [5]) and with L6-myotubes [2] (setting [6]) were under 25% and 25 to 50%, respectively.
Consider `O[C@@H](c1cccc(F)c1)C12CCC(CCc3ccc(Cl)cc3)(CC1)N2` [Compound 527, (S)-{4-[2-(p-chlorophenyl)ethyl]-7-azabicyclo[[2.2.1]]hept-1-yl}(m-fluorophenyl)methanol], for which the Emax at 10 µM with L6-myotubes [1] (setting [3]) and with L6-myotubes [2] (setting [4]) was under 25% in each case.
On to `CC(=O)N[C@H]1CC[C@H](CC(C)(C)NC[C@H](O)c2cccc(C#N)n2)CC1` [Compound 425], for which the Emax at 10 µM in the assay with L6-myotubes [1] (setting [3]) is 25 to 50%; in the assay with L6-myotubes [2] (setting [4]), over 75%.
On to `CCC[C@@H]1CCC[C@@H]([C@@H](O)c2cccc(O)c2)N1` [Compound 113], for which the Emax at 10 µM is under 25% with L6-myotubes [1] (setting [5]) and 50 to 75% with L6-myotubes [2] (setting [6]).
Regarding `CC(=O)N(C)[C@H]1CC[C@@H](CC(C)(C)NC[C@H](O)c2cncc(F)c2)CC1` [Compound 492], the “Biological example 3 (CAMP)” value in the assay with L6-myotubes [1] (setting [3]) is “− (if it less than 25% it is denoted with −)”. Also, the “Biological example 2 (GU)” value in the assay with L6-myotubes [2] (setting [4]) is “+ (if it is between 50 and 25% it is denoted with +)”.
Regarding `CCCCNC[C@H](O)c1cccc(O)c1F` [Compound 87, (R)-2-(butylamino)-1-(2-fluoro-3-hydroxyphenyl)-1-ethanol], the Emax at 10 µM with L6-myotubes [1] (setting [5]) is 25 to 50%; with L6-myotubes [2] (setting [6]), over 75%.
For `CC(C)(C[C@H]1CC[C@H](NC(=O)C2CC2)CC1)NC[C@H](O)c1cccc(F)c1` [Compound 432], the Emax at 10 µM in the assay on L6-myotubes [1] (setting [3]) and with L6-myotubes [2] (setting [4]) was over 75% throughout.
Turning to `CC1(C)CC[C@H]([C@H](O)c2cccc(O)c2)N1` [Compound 112, m-{(R)-[(R)-5,5-dimethyl-2-pyrrolidinyl] hydroxymethyl}phenol], the Emax at 10 µM is under 25% in the assay on L6-myotubes [1] (setting [5]) and over 75% in the assay with L6-myotubes [2] (setting [6]).
In the case of `CC(C)(CC[C@H]1CC[C@H](O)CC1)NC[C@H](O)c1cccc(F)c1` [Compound 290, (R)-2-{1,1-dimethyl-3-[(1r,4S)-4-hydroxycyclohexyl]propylamino}-1-(m-fluorophenyl)-1-ethanol], the values for the Emax at 10 µM in the assay with L6-myotubes [1] (setting [3]) and in the assay with L6-myotubes [2] (setting [4]) were under 25% and 25 to 50%, respectively.
For the compound `CC12CC(C1)[C@@H]([C@@H](O)c1cccc(F)c1)N2` [Compound 189], the Emax at 10 µM in the assay with L6-myotubes [1] (setting [5]) is under 25%; in the assay with L6-myotubes [2] (setting [6]) it was 50 to 75%.
Consider `CCC[C@H]1CCC[C@@H]([C@H](O)c2cccc(F)c2)N1` [Compound 120], for which the Emax at 10 µM with L6-myotubes [1] (setting [5]) was under 25%; with L6-myotubes [2] (setting [6]) it was 50 to 75%.
